Like-named read-outs stand apart in the source and are kept apart here.
Tests used:
recombinant human PIM1 = recombinant human PIM1 (Homo sapiens (Human), UniProt P11309); test: PIM-1 kinase activity in cell-free in vitro assay; type: biochemical; settings: for inhibition at 0.5 µM: 500 nM compound, read-out: PIM-1: % inh 500 nM
Jurkat = test: Cell proliferation modulatory activity, Jurkat; type: cell-based; settings: Homo sapiens
K-562 [1] = test: Cell proliferation modulatory activity, K-562; type: cell-based; settings: Homo sapiens, K562
MV-4-11 [2] = test: Cell proliferation modulatory activity, MV-4-11; type: cell-based; settings: Homo sapiens, MV4-11
recombinant human CK2 = recombinant human CK2 (Homo sapiens (Human), UniProt P68400); test: CK2 assay (cell-free, 33P-ATP filter plate); type: biochemical; settings: cell-free assay; for inhibition at 0.5 µM: 500 nM compound, read-out: CK2: % inh 500 nM; for IC50: 15 um ATP, read-out: CK2 (15 um ATP) IC50
Sequence of recombinant human CK2 (P68400 whole entry): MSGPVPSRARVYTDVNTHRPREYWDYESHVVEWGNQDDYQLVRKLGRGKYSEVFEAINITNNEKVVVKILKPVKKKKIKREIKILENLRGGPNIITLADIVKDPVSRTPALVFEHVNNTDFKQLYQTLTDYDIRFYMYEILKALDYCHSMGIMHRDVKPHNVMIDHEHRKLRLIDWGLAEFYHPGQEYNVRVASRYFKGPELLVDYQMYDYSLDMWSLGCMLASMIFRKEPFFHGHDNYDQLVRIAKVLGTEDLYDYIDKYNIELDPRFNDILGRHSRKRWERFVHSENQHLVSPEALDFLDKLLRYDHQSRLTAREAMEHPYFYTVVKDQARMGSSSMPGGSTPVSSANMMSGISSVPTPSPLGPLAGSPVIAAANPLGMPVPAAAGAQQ
Sequence of recombinant human CK2 (P67870 whole entry partner): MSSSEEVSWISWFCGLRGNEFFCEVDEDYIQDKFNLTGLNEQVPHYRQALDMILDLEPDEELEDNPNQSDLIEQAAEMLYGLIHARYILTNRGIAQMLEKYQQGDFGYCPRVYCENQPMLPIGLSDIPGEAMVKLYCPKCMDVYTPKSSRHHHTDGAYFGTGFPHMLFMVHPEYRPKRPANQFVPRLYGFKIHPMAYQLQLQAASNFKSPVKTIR

[3] = tested on: HCT-116 human colorectal carcinoma cells; test: Cell-proliferation assay using Alamar Blue dye; type: cell-based; settings: Homo sapiens, read-out: HCT-116 (uM), cell proliferation modulatory activity;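 also: cells exposed to compound for about 4 days, then Alamar Blue added and dye fluorescence read after about 4 h, compared with medium-only control wells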
PIM2 = PIM2 (Homo sapiens (Human), UniProt Q9P1W9); test: PIM2 IC50; type: biochemical; settings: Table 45
Sequence of PIM2 (Q9P1W9 whole entry): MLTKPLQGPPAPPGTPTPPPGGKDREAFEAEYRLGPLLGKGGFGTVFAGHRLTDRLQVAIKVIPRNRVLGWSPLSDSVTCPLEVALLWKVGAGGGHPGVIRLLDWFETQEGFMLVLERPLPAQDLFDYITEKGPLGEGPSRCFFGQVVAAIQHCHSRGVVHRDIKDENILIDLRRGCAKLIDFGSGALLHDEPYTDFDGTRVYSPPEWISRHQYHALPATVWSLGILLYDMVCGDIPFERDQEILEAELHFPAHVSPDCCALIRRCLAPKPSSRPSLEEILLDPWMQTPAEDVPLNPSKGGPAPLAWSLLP

K-562 [4] = test: Cell proliferation modulatory activity, K-562; type: cell-based; settings: Homo sapiens, K562; K-562 cells; read-out: K-562 (uM), cell proliferation modulatory activity
MV-4-11 [5] = test: Cell proliferation modulatory activity, MV-4-11; type: cell-based; settings: Homo sapiens, MV4-11; MV-4-11 cells; read-out: MV-4-11 (uM), cell proliferation modulatory activity
[6] = HCT-116, HCT-116, second HCT-116 column (c8)
[7] = HCT-116, second of two HCT-116 columns (c8)

Sequence of recombinant human PIM1 (P11309 whole entry): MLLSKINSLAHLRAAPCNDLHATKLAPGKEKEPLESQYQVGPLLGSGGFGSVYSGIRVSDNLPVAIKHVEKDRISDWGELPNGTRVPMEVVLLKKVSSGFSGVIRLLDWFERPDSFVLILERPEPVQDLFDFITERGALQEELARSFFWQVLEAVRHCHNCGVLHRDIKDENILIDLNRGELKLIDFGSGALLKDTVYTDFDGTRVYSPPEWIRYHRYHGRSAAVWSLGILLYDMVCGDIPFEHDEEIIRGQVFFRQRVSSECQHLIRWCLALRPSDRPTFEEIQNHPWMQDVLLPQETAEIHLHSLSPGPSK

| inhibition at 0.5 µM (recombinant human PIM1; cell-free assay) | IC50 (K-562 [1]) | IC50 [3, 6] | IC50 (recombinant human PIM1; Table 45) | IC50 (PIM2) | also measured | Compound |
| --- | --- | --- | --- | --- | --- | --- |
| 18.6% | > 10 µM | – | – | – | IC50 (Jurkat): 1.24 µM; IC50 (MV-4-11 [2]): 0.655 µM | CNc1ncc2c(n1)c(Nc1ccc(F)c(Cl)c1)nc1cc(C(=O)O)ccc12 |
| 14.1% | > 10 µM | > 10 µM | – | – | inhibition at 0.5 µM (recombinant human CK2): 96.3%; IC50 (MV-4-11 [2]): 1.86 µM | O=C(O)c1ccc2c(c1)nc(NC1CC1)c1nc(Nc3ccc(F)c(F)c3)ncc12 |
| 29% | > 10 µM | – | – | – | IC50 (MV-4-11 [2]): 0.237 µM | C#Cc1cccc(Nc2nc3cc(C(=O)O)ccc3c3cnc(NC4CCNCC4)nc23)c1 |
| – | – | – | > 1.1 µM | > 1.1 µM | – | CCN1CCCC1CNc1nc2c(-c3nc[nH]n3)cccc2c2cnccc12 (centres unmarked) |
| 15.6% | > 10 µM | > 10 µM | – | – | – | O=C(O)c1ccc2c(c1)nc(NCc1cccc3ccccc13)c1ccncc12 |
| 40.4% | – | – | – | – | inhibition at 0.5 µM (recombinant human CK2): 23.9%; IC50 [3, 7]: > 10 µM; IC50 (K-562 [4]): > 10 µM; IC50 (MV-4-11 [5]): > 10 µM | Clc1ccc(Nc2nc3cc(-c4nnn[nH]4)ccc3c3ccsc23)cc1 |
| 9.85% | > 10 µM | > 10 µM | – | – | inhibition at 0.5 µM (recombinant human CK2): 99%; IC50 (MV-4-11 [2]): > 10 µM | COc1ccc(CCNc2nc3cc(C(=O)O)ccc3c3cnccc23)cc1OC |
| 30.6% | 1.16 µM | – | – | – | IC50 (Jurkat): 5.7 µM; IC50 (MV-4-11 [2]): 0.358 µM | O=C(O)c1ccc2c(c1)nc(Nc1ccccc1)c1nc(NCCN3CCOCC3)ncc12 |
| – | – | – | < 0.5 µM | < 1 µM | – | c1cc(-c2nc[nH]n2)c2nc(NCc3ccncc3)c3ccncc3c2c1 |
| – | – | – | < 1 µM | < 1 µM | – | Fc1cc(-c2nnc[nH]2)c2nc(Nc3cccc(Cl)c3)c3ccncc3c2c1 [drawing 2259] |
| – | – | – | < 1 µM | > 1.1 µM | – | CN1CCN(c2nc3c(-c4nc[nH]n4)cccc3c3cnccc23)CC1 |
| 10.8% | – | – | – | – | inhibition at 0.5 µM (recombinant human CK2): 17.4%; IC50 [3, 7]: > 10 µM; IC50 (K-562 [4]): > 10 µM; IC50 (MV-4-11 [5]): 1.1 µM | FC(F)(F)c1cccc(Nc2nc3cc(-c4nnn[nH]4)ccc3c3ccsc23)c1 |
| – | – | – | < 0.5 µM | > 1.1 µM | – | c1cncc(CNc2nc3c(-c4nc[nH]n4)cccc3c3cnccc23)c1 |
| – | – | – | < 5 µM | > 1.1 µM | – | c1cc(-c2nc[nH]n2)c2nc(NCCN3CCOCC3)c3ccncc3c2c1 |
| – | – | – | < 1 µM | > 1.1 µM | – | NC(=O)c1cc(F)cc2c1nc(Nc1cccc(Cl)c1)c1ccncc12 |
| 20.7% | > 10 µM | > 10 µM | – | – | inhibition at 0.5 µM (recombinant human CK2): 90.5%; IC50 (recombinant human PIM1; cell-free assay): 0.31 µM; IC50 (MV-4-11 [2]): > 10 µM | O=C(O)c1ccc2c(c1)nc(N1CCC(N3CCOCC3)CC1)c1ccncc12 |
| – | – | – | < 0.5 µM | < 0.5 µM | – | c1ccc(CNc2nc3c(-c4nc[nH]n4)cccc3c3cnccc23)nc1 |
| – | – | – | < 0.5 µM | > 1.1 µM | – | CN1CCC(CNc2nc3c(-c4nnc[nH]4)cccc3c3cnccc23)CC1 |
| -2.46% | – | > 10 µM | – | – | IC50 (recombinant human CK2): 0.064 µM; IC50 (recombinant human PIM1; cell-free assay): > 1.1 µM; IC50 (Jurkat): 7.37 µM | CC(C)OCCNc1ncc2c(n1)c(NC1CC1)nc1cc(C(=O)O)ccc12 |
| – | – | – | > 1.1 µM | > 1.1 µM | – | O=C(O)c1cc(F)cc2c1nc(Nc1cccc(Cl)c1)c1ccncc12 |
| -8.19% | – | > 10 µM | – | – | IC50 (recombinant human CK2): 0.058 µM; IC50 (Jurkat): 18.1 µM | CCOCCNc1ncc2c(n1)c(NC1CC1)nc1cc(C(=O)O)ccc12 |

| inhibition at 0.5 µM (recombinant human PIM1; cell-free assay) | IC50 (K-562 [1]) | IC50 [3, 6] | IC50 (recombinant human PIM1; Table 45) | IC50 (PIM2) | also measured | Compound |
| --- | --- | --- | --- | --- | --- | --- |
| 2.81% | 1.34 µM | > 10 µM | – | – | – | COC(=O)c1ccc2c(c1)nc(NC1CC1)c1nc(C#N)ncc12 |
| -8.95% | > 10 µM | > 10 µM | – | – | inhibition at 0.5 µM (recombinant human CK2): 96.1%; IC50 (MV-4-11 [2]): > 10 µM | O=C(O)c1ccc2c(c1)nc(NCCc1ccccn1)c1ccncc12 |
| – | – | – | < 5 µM | > 1.1 µM | – | CN(C)CCNc1nc2c(-c3nc[nH]n3)cccc2c2cnccc12 |
| – | – | – | > 1.1 µM | > 1.1 µM | – | O=C(O)c1cc(F)cc2c1nc(Nc1cccc(Cl)c1)c1cnccc12 |
| -10.8% | – | 1.33 µM | – | – | IC50 (recombinant human CK2): 0.135 µM; IC50 (Jurkat): 0.504 µM | NC(=O)c1ccc2c(c1)nc(NC1CC1)c1nc(NC3CC3)ncc12 |
| -16.1% | – | 3.87 µM | – | – | IC50 (recombinant human CK2): > 0.75 µM; IC50 (Jurkat): 1.64 µM | COCCNC(=O)c1ccc2c(c1)nc(NC1CC1)c1nc(NC3CC3)ncc12 |
| -40.2% | – | > 10 µM | – | – | IC50 (recombinant human CK2): 0.074 µM; IC50 (Jurkat): 16.6 µM | CC(C)OCCCNc1ncc2c(n1)c(NC1CC1)nc1cc(C(=O)O)ccc12 |
| -8.31% | – | > 10 µM | – | – | IC50 (recombinant human CK2): 0.167 µM; IC50 (Jurkat): 44.7 µM | CC(C)C(CO)Nc1ncc2c(n1)c(NC1CC1)nc1cc(C(=O)O)ccc12 (centres unmarked) |
| 23.2% | – | > 10 µM | – | – | IC50 (recombinant human CK2): 0.095 µM; IC50 (Jurkat): 2.17 µM | O=C(O)c1ccc2c(c1)nc(NC1CC1)c1nc(Nc3cccc(Cl)c3)ncc12 |
| 14.3% | > 10 µM | > 10 µM | – | – | inhibition at 0.5 µM (recombinant human CK2): 96.6%; IC50 (MV-4-11 [2]): > 10 µM | O=C(O)c1ccc2c(c1)nc(NCc1ccccn1)c1ccncc12 |
| – | – | – | > 1.1 µM | > 1.1 µM | – | Fc1cc(-c2nnc[nH]2)c2nc(Nc3cccc(Cl)c3)c3ccncc3c2c1 [drawing 2269] |
| 22.9% | – | – | – | – | inhibition at 0.5 µM (recombinant human CK2): 45.4%; IC50 [3, 7]: > 10 µM; IC50 (K-562 [4]): > 10 µM | Fc1cc(Cl)cc(Nc2nc3cc(-c4nnn[nH]4)ccc3c3ccsc23)c1 |
| 10.5% | – | > 10 µM | – | – | IC50 (recombinant human CK2): 0.042 µM; IC50 (Jurkat): 21.5 µM | O=C(O)c1ccc2c(c1)nc(NC1CC1)c1nc(NCC3CCCO3)ncc12 (centres unmarked) |
| -5.17% | – | 3.16 µM | – | – | IC50 (recombinant human CK2): > 0.75 µM; IC50 (Jurkat): 0.989 µM | O=C(Nc1ccccc1)c1ccc2c(c1)nc(NC1CC1)c1nc(NC3CC3)ncc12 |
| -32.7% | – | > 10 µM | – | – | IC50 (recombinant human CK2): 0.228 µM; IC50 (Jurkat): 28.7 µM | CC(Nc1ncc2c(n1)c(NC1CC1)nc1cc(C(=O)O)ccc12)c1ccccc1 (centres unmarked) |
| 45.6% | > 10 µM | – | – | – | IC50 (MV-4-11 [2]): > 10 µM | O=C(O)c1ccc2c(c1)nc(Nc1ccccc1)c1nc(NCCO)ncc12 |
| – | > 10 µM | > 10 µM | – | – | IC50 (MV-4-11 [2]): 2.29 µM | O=C(O)c1ccc2c(c1)nc(NC1CC1)c1nc(Nc3ccc(F)cc3F)ncc12 |
| 33.7% | > 10 µM | > 10 µM | – | – | – | Cc1cccc(N2CCN(c3nc4cc(C(=O)O)ccc4c4cnccc34)CC2)c1 |
| 37.3% | > 10 µM | > 10 µM | – | – | inhibition at 0.5 µM (recombinant human CK2): -15%; IC50 (MV-4-11 [2]): > 10 µM | Cc1cnc(CNC(=O)c2ccc3c(c2)nc(N2CCN(C)CC2)c2ccsc23)cn1 |
| 29.1% | – | – | – | – | inhibition at 0.5 µM (recombinant human CK2): 37.6%; IC50 [3, 7]: > 10 µM; IC50 (K-562 [4]): > 10 µM; IC50 (MV-4-11 [5]): 0.721 µM | Fc1ccc(Nc2nc3cc(-c4nnn[nH]4)ccc3c3ccsc23)cc1Cl |
| 54.7% | – | – | – | – | inhibition at 0.5 µM (recombinant human CK2): 30.3%; IC50 [3, 7]: > 10 µM; IC50 (recombinant human PIM1; cell-free assay): 0.738 µM; IC50 (K-562 [4]): > 10 µM; IC50 (MV-4-11 [5]): > 10 µM | Fc1ccc(Nc2nc3cc(-c4nnn[nH]4)ccc3c3ccsc23)cc1 |

Reference: patent US8168651B2, “Protein kinase modulators” (Cylene Pharmaceuticals, Inc., priority 2008, dated 2012)
